Assay results reported in patent US6436962B1, “Arylhydantoin derivatives and uses thereof” (Merck & Co., Inc., priority 1999, dated 2002).

What was measured:
[1] = biological target: T1, human alpha 1a adrenergic receptor (Homo sapiens, UniProt P35348); experiment: Screening assay: alpha 1a adrenergic receptor binding ([125I]-HEAT competition); settings: membranes from stably transfected human alpha 1a cell line (ATCC CRL 11140), 100 pM [125I]-HEAT
T1 sequence (P35348 1-466): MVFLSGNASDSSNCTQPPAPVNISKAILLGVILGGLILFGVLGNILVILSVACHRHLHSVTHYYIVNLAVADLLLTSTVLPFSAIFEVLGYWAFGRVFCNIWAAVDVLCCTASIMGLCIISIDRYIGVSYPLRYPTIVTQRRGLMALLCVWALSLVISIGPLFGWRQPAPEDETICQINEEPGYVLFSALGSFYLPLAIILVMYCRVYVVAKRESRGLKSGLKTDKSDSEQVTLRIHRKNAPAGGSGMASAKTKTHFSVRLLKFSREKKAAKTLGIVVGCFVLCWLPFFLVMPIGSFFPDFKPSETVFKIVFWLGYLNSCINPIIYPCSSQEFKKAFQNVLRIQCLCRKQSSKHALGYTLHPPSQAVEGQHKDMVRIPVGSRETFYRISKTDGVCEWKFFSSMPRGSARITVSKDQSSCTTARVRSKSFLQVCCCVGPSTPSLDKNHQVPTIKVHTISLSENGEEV
Experimental: Screening Assay: Alpha 1a Adrenergic Receptor Binding
These competition binding reactions (total volume=200 μl) contained 50 mM Tris-HCl pH. […] Reactions were incubated at room temperature for one hour with shaking. Reactions were filtered onto Whatman GF/C glass fiber filters with a Inotec 96 well cell harvester. Filters were washed three times with ice cold buffer and bound radioactivity was determined (Ki).

Row | Compound | melting point | Ki [1]
1 | Cc1ccc(C2(c3ccc(C)cc3)NC(=O)N(CCCN3CCC(C#N)(c4ccccc4C)CC3)C2=O)cc1 [Compound 2, 3-{3-[4-(2-Methylphenyl)-4-cyanopiperidin-1-yl]propyl}-5,5-bis(4-methylphenyl)-imidazolin-2,4-dione] | 164 to 165 °C | < 20 nM
2 | N#CC1(c2ccccc2)CCN(CCCN2C(=O)NC(c3ccccc3)(c3ccccc3)C2=O)CC1 [Compound 15, 3-[3-(4-phenyl-4-cyanopiperidin-1-yl)propyl]-5,5-bis(phenyl)-imidazolin-2,4-dione] | 161 to 163 °C | < 20 nM
3 | Cc1ccc(C2(c3ccc(C)cc3)NC(=O)N(CCCN3CCC4(CCc5ccccc54)CC3)C2=O)cc1 [Compound 18, 3-{3-(2,3-dihydro-spiro[indeno-1,4′-piperidin]-1′yl)propyl}-5,5-bis(4-methylphenyl)-imidazolin-2,4-dione] | 170 to 172 °C | < 20 nM
4 | Cc1ccc(C2(c3ccc(C)cc3)NC(=O)N(CCCCN3CCC4(CC3)C(=O)Cc3ccccc34)C2=O)cc1 [Compound 19, 3-{4-(2,3-dihydro-spiro[indeno-1,4′-piperidin]-2(3H)-on-1′-yl)butyl}-5,5-bis(4-methylphenyl)-imidazolin-2,4-dione] | 76 to 88 °C | < 20 nM
5 | Cc1ccc(C2(c3ccc(C)cc3)NC(=O)N(CCCN3CCC4(CC3)C(=O)N(C)c3ccccc34)C2=O)cc1 [Compound 22, 3-{3-(1-methyl-spiro[3H-indole-3,4′piperidin]-2(1H)-on-1′-yl)propyl}-5,5-bis(4-methylphenyl)-imidazolin-2,4-dione] | 127 to 135 °C | < 20 nM

Second part, led by results:

Row | melting point | Compound | Ki [1]
6 | 201 to 205 °C | Cc1ccc(C2(c3ccc(C)cc3)NC(=O)N(CCCN3CCC4(CC3)Cc3ccccc3C4=O)C2=O)cc1 [Compound 20, 3-{3-(2,3-dihydro-spiro[indeno-2,4′-piperidin]-1(2H)-on-1-yl)propyl}-5,5-bis(4-methylphenyl)-imidazolin-2,4-dione] | < 20 nM
7 | 63 to 65 °C | CCOC(=O)CN1C(=O)N(CCCN2CCC(C#N)(c3ccccc3C)CC2)C(=O)C1(c1ccc(C)cc1)c1ccc(C)cc1 [Compound 35, 1 -Ethoxycarbonylmethyl-3-{3-[4-(2-methylphenyl)-4-cyanopiperidin-1-yl]propyl}bis-5,5-(4-methylphenyl)-imidazolin-2,4-dione] | 
